The test system of assay [1] is Mycosphaerella graminicola (Septoria tritici). The assay can be described thus: Mycosphaerella graminicola (Septoria tritici) / liquid culture (Septoria blotch). The note with it: Zymoseptoria tritici, compared to untreated control. Format: cell-based. As to the method: Example B15: Mycosphaerella graminicola (Septoria tritici)/Liquid Culture (Septoria Blotch) Conidia of the fungus from cryogenic storage are directly mixed into nutrient broth (PDB potato dextrose broth). After placing a (DMSO) solution of test compound into a microtiter plate (96-well format), the nutrient broth containing the fungal spores is added. The test plates are incubated at 24° C. and the inhibition of growth is determined photometrically 4 to 5 days after application.

The subject of assay [2] is Mycosphaerella arachidis (Cercospora arachidicola). Put plainly: Mycosphaerella arachidis (Cercospora arachidicola) / liquid culture (early leaf spot). It is filed as cell-based. The settings on record: compared to untreated control. As to the method:
Example B9: Mycosphaerella arachidis (Cercospora arachidicola)/Liquid Culture (Early Leaf Spot) Conidia of the fungus from cryogenic storage are directly mixed into nutrient broth (PDB potato dextrose broth). After placing a (DMSO) solution of test compound into a microtiter plate (96-well format), the nutrient broth containing the fungal spores is added. The test plates are incubated at 24° C. and the inhibition of growth is determined photometrically 4 to 5 days after application.

Structures are written as SMILES.

Consider `Cc1c(C2CN(C(=O)COCc3ccc(F)cc3F)Cc3ccccc32)cnn1C` (stereo not drawn) [Compound P-15, 2-[(2,4-difluorophenyl)methoxy]-1-[4-(1,5-dimethylpyrazol-4-yl)-3,4-dihydro-1H-isoquinolin-2-yl]ethanone], for which the inhibition of growth at 20 ppm in assay [1] was at least 80%.
Regarding `Cc1c(C2CN(C(=O)CCc3ccc(Cl)c(Cl)c3)Cc3ccccc32)cnn1C` (stereo not drawn) [Compound P-23, 3-(3,4-dichlorophenyl)-1-[4-(1,5-dimethylpyrazol-4-yl)-3,4-dihydro-1H-isoquinolin-2-yl]propan-1-one], the inhibition of growth at 20 ppm in assay [1] is at least 80%.
The compound `CCCCCC(=O)N1Cc2ccccc2C(c2cnn(C)c2C)C1` (stereo not drawn) [Compound P-5, 1-[4-(1,5-dimethylpyrazol-4-yl)-3,4-dihydro-1H-isoquinolin-2-yl]hexan-1-one] yielded an inhibition of growth at 20 ppm in assay [1] of at least 80%.
The same measure, in the same setting: the value for `Cc1c(C2CN(C(=O)OCCC3CC3)Cc3ccccc32)cnn1C` (stereo not drawn) [Compound P-3, 2-cyclopropylethyl 4-(1,5-dimethylpyrazol-4-yl)-3,4-dihydro-1H-isoquinoline-2-carboxylate] was at least 80%; that for `Cc1c(C2CN(C(=O)COc3ccc(F)cc3F)Cc3ccccc32)cnn1C` (stereo not drawn) [Compound P-13, 2-(2,4-difluorophenoxy)-1-[4-(1,5-dimethylpyrazol-4-yl)-3,4-dihydro-1H-isoquinolin-2-yl]ethanone] was at least 80%.
On the same count and under the same terms, the value for `Cc1c(C2CN(C(=O)Nc3ccc(C4CC4)cc3)Cc3ccccc32)cnn1C` (stereo not drawn) [Compound P-41, N-(4-cyclopropylphenyl)-4-(1,5-dimethylpyrazol-4-yl)-3,4-dihydro-1H-isoquinoline-2-carboxamide] was at least 80%; that for `Cc1c(C2CN(C(=O)Nc3cc(C(C)(C)C)on3)Cc3ccccc32)cnn1C` (stereo not drawn) [Compound P-34, N-(5-tert-butylisoxazol-3-yl)-4-(1,5-dimethylpyrazol-4-yl)-3,4-dihydro-1H-isoquinoline-2-carboxamide] was at least 80%; that for `Cc1c(C2CN(C(=O)Nc3ccc(Cl)cc3)Cc3ccccc32)cnn1C` (stereo not drawn) [Compound P-40, N-(4-chlorophenyl)-4-(1,5-dimethylpyrazol-4-yl)-3,4-dihydro-1H-isoquinoline-2-carboxamide] was at least 80%.
The same measure, in the same setting: then `Cc1c([C@H]2CN(C(=O)NCCCCCF)[C@@H](C)c3ccccc32)cnn1C` [Compound P-52, (1S,4S)-4-(1,5-dimethylpyrazol-4-yl)-N-(5-fluoropentyl)-1-methyl-3,4-dihydro-1H-isoquinoline-2-carboxamide], with at least 80%; and `Cc1c(C2CN(C(=O)NCCC(C)(C)C3CC3)Cc3ccccc32)cnn1C` (stereo not drawn) [Compound P-39, N-(3-cyclopropyl-3-methyl-butyl)-4-(1,5-dimethylpyrazol-4-yl)-3,4-dihydro-1H-isoquinoline-2-carboxamide], with at least 80%; and `Cn1cc(C2(C)CN(C(=O)OCCC3CCCCC3)Cc3ccccc32)cn1` (stereo not drawn) [Compound P-12, 2-cyclohexylethyl 4-methyl-4-(1-methylpyrazol-4-yl)-1,3-dihydroisoquinoline-2-carboxylate], with at least 80%.
As to `Cc1c(C2CN(C(=O)CCCC(C)C)Cc3ccccc32)cnn1C` (stereo not drawn) [Compound P-19, 1-[4-(1,5-dimethylpyrazol-4-yl)-3,4-dihydro-1H-isoquinolin-2-yl]-5-methyl-hexan-1-one], the inhibition of growth at 20 ppm in assay [1] and in assay [2] was at least 80% throughout.
`C#CCCCCCC(=O)N1Cc2ccccc2C(c2cnn(C)c2C)C1` (stereo not drawn) [Compound P-21, 1-[4-(1,5-dimethylpyrazol-4-yl)-3,4-dihydro-1H-isoquinolin-2-yl]oct-7-yn-1-one] gave an inhibition of growth at 20 ppm in assay [1] of at least 80%.
Consider `Cn1cc(C2CN(C(=O)CCc3ccc(F)cc3F)Cc3ccccc32)cn1` (stereo not drawn) [Compound P-1, 3-(2,4-difluorophenyl)-1-[4-(1-methylpyrazol-4-yl)-3,4-dihydro-1H-isoquinolin-2-yl]propan-1-one], for which the inhibition of growth at 20 ppm in assay [1] and in assay [2] was at least 80% in each case.
As for `Cc1c(C2CN(C(=O)OCCCCCF)Cc3ccccc32)cnn1C` (stereo not drawn) [Compound P-55, 5-fluoropentyl 4-(1,5-dimethylpyrazol-4-yl)-3,4-dihydro-1H-isoquinoline-2-carboxylate], the inhibition of growth at 20 ppm in assay [1] and in assay [2] was at least 80% in each case.
Compound `Cc1c(C2CN(C(=O)CCCCC3CC3)Cc3ccccc32)cnn1C` (stereo not drawn) [Compound P-48, 5-cyclopropyl-1-[4-(1,5-dimethylpyrazol-4-yl)-3,4-dihydro-1H-isoquinolin-2-yl]pentan-1-one] gave an inhibition of growth at 20 ppm in assay [1] of at least 80%.
In the case of `Cc1c(C2CN(C(=O)OCCCCC(F)F)Cc3ccccc32)cnn1C` (stereo not drawn) [Compound P-54, 5,5-difluoropentyl 4-(1,5-dimethylpyrazol-4-yl)-3,4-dihydro-1H-isoquinoline-2-carboxylate], the inhibition of growth at 20 ppm in assay [1] and in assay [2] was at least 80% in each case.
The compound `Cc1nc(NC(=O)N2Cc3ccccc3C(c3cnn(C)c3C)C2)ccc1Cl` (stereo not drawn) [Compound P-35, N-(5-chloro-6-methyl-2-pyridyl)-4-(1,5-dimethylpyrazol-4-yl)-3,4-dihydro-1H-isoquinoline-2-carboxamide] displayed an inhibition of growth at 20 ppm in assay [1] of at least 80%.
Turning to `Cc1c(C2CN(C(=O)CSc3ccc(F)cc3F)Cc3ccccc32)cnn1C` (stereo not drawn) [Compound P-14, 2-(2,4-difluorophenyl)sulfanyl-1-[4-(1,5-dimethylpyrazol-4-yl)-3,4-dihydro-1H-isoquinolin-2-yl]ethanone], the inhibition of growth at 20 ppm in assay [1] and in assay [2] was at least 80% each time.
Consider `CCCCCCC(=O)N1Cc2ccccc2C(C)(c2cnn(C)c2)C1` (stereo not drawn) [Compound P-8, 1-[4-methyl-4-(1-methylpyrazol-4-yl)-1,3-dihydroisoquinolin-2-yl]heptan-1-one], for which, in assay [1], the inhibition of growth at 20 ppm is at least 80%.
On the same count and under the same terms, then `Cc1c(C2CN(C(=O)CCc3ccc(Br)cc3)Cc3ccccc32)cnn1C` (stereo not drawn) [Compound P-20, 3-(4-bromophenyl)-1-[4-(1,5-dimethylpyrazol-4-yl)-3,4-dihydro-1H-isoquinolin-2-yl]propan-1-one], with at least 80%.
Still for that read-out and setting: then `Cc1c(C2CN(C(=O)NCCCC3CCCC3)Cc3ccccc32)cnn1C` (stereo not drawn) [Compound P-38, N-(3-cyclopentylpropyl)-4-(1,5-dimethylpyrazol-4-yl)-3,4-dihydro-1H-isoquinoline-2-carboxamide], with at least 80%.
With `Cc1c([C@H]2CN(C(=O)CCCC=C(F)F)[C@@H](C)c3ccccc32)cnn1C` (racemic) [Compound P-26, 6,6-difluoro-1-[rac-(1S,4S)-4-(1,5-dimethylpyrazol-4-yl)-1-methyl-3,4-dihydro-1H-isoquinolin-2-yl]hex-5-en-1-one], the inhibition of growth at 20 ppm in assay [1] and in assay [2] was at least 80% each time.
`CCCCCCCCCC(=O)N1Cc2ccccc2C(c2cnn(C)c2C)C1` (stereo not drawn) [Compound P-9, 1-[4-(1,5-dimethylpyrazol-4-yl)-3,4-dihydro-1H-isoquinolin-2-yl]decan-1-one] displayed an inhibition of growth at 20 ppm in assay [1] of at least 80%.
Still for that read-out and setting: the value for `Cc1c(C2CN(C(=O)CCCC=C(F)F)Cc3ccccc32)cnn1C` (stereo not drawn) [Compound P-24, 1-[4-(1,5-dimethylpyrazol-4-yl)-3,4-dihydro-1H-isoquinolin-2-yl]-6,6-difluoro-hex-5-en-1-one] was at least 80%; that for `Cc1c(C2CN(C(=O)Nc3nc4ccccc4s3)Cc3ccccc32)cnn1C` (stereo not drawn) [Compound P-33, N-(1,3-benzothiazol-2-yl)-4-(1,5-dimethylpyrazol-4-yl)-3,4-dihydro-1H-isoquinoline-2-carboxamide] was at least 80%.
As for `Cc1c([C@H]2CN(C(=O)NCCCC3CC3)[C@@H](C)c3ccccc32)cnn1C` [Compound P-51, (1S,4S)-N-(3-cyclopropylpropyl)-4-(1,5-dimethylpyrazol-4-yl)-1-methyl-3,4-dihydro-1H-isoquinoline-2-carboxamide], the inhibition of growth at 20 ppm in assay [1] and in assay [2] was at least 80% throughout.
With `Cc1c([C@H]2CN(C(=O)NCCCCC(F)F)[C@@H](C)c3ccccc32)cnn1C` [Compound P-53, (1S,4S)-N-(5,5-difluoropentyl)-4-(1,5-dimethylpyrazol-4-yl)-1-methyl-3,4-dihydro-1H-isoquinoline-2-carboxamide], the inhibition of growth at 20 ppm in assay [1] was at least 80%.
In assay [1], `Cc1c(C2CN(C(=O)CCCCC3CCSS3)Cc3ccccc32)cnn1C` (stereo not drawn) [Compound P-18, 1-[4-(1,5-dimethylpyrazol-4-yl)-3,4-dihydro-1H-isoquinolin-2-yl]-5-(dithiolan-3-yl)pentan-1-one] showed an inhibition of growth at 20 ppm of at least 80%.
Same read-out and setting: then `Cc1c([C@H]2CN(C(=O)NCc3ccc(F)cc3F)[C@@H](C)c3ccccc32)cnn1C` (racemic) [Compound P-44, rac-(1S,4S)-N-[(2,4-difluorophenyl)methyl]-4-(1,5-dimethylpyrazol-4-yl)-1-methyl-3,4-dihydro-1H-isoquinoline-2-carboxamide], with at least 80%.
`Cc1c(C2CN(C(=O)NCCC3CCCCCC3)Cc3ccccc32)cnn1C` (stereo not drawn) [Compound P-32, N-(2-cycloheptylethyl)-4-(1,5-dimethylpyrazol-4-yl)-3,4-dihydro-1H-isoquinoline-2-carboxamide] showed an inhibition of growth at 20 ppm in assay [1] of at least 80%.
Still for that read-out and setting: then `Cc1c(C2CN(C(=O)OCCc3ccc(F)cc3)Cc3ccccc32)cnn1C` (stereo not drawn) [Compound P-25, 2-(4-fluorophenyl)ethyl 4-(1,5-dimethylpyrazol-4-yl)-3,4-dihydro-1H-isoquinoline-2-carboxylate], with at least 80%.

What is called inhibition of growth is how much of the control response was suppressed. High values mean a response far below the control, low ones a response near the control.

For the origin of these results see patent US20260193226A1, “MICROBIOCIDAL TETRAHYDROISOQUINOLINE DERIVATIVES” (SYNGENTA CROP PROTECTION AG, priority 2022, published 2026).
